Results from US12691076B2, “Methods and compositions related to extracellular vesicles” (priority 2020, dated 2026).
Like-named read-outs stand apart in the source and are kept apart here.

Test: Plasma and tissue concentrations of efavirenz after tail vein injection
Type: in vivo, CD-1 mice
Conditions: mice, 5 mg/kg tail vein; for concentration at […]: 0.25 h
Method: The efavirenz-loaded apical AVT-EVs were subsequently injected via tail vein into CD-1 mice at a dose of 5 mg/kg and compared to a control injection of 5 mg/kg of conventional efavirenz (dissolved with DMSO). Plasma and tissue concentrations were determined by LC-MS/MS.

[1] = CD-1, mouse, liver, intravenous, LLOQ 35 ng/g, read-out: Efavirenz concentration, Liver
[2] = CD-1, mouse, lung, intravenous, LLOQ 35 ng/g, read-out: Efavirenz concentration, Lungs
[3] = CD-1, mouse, plasma, intravenous, read-out: Efavirenz concentration, Plasma

For `O=C1Nc2ccc(Cl)cc2[C@@](C#CC2CC2)(C(F)(F)F)O1` [Efavirenz in DMSO, efavirenz], the concentration at 0.083 h [1] was 7590 ng/g, the concentration at […] [1] was 5420 ng/g and the concentration at 0.5 h [1] was 5230 ng/g. For the same compound, the concentration at 1 h [1] was 176 ng/g, the concentration at 2 h [1] was 135 ng/g and the concentration at 3 h (CD-1, mouse, liver, intravenous, 3 h, LLOQ 35 ng/g, read-out: Efavirenz concentration, Liver) was 136 ng/g. For the same compound, the concentration at 4 h (CD-1, mouse, liver, intravenous, 4 h, LLOQ 35 ng/g, read-out: Efavirenz concentration, Liver) was 137 ng/g, the concentration at 6 h (CD-1, mouse, liver, intravenous, 6 h, LLOQ 35 ng/g, read-out: Efavirenz concentration, Liver) was 115 ng/g and the concentration at 0.083 h [2] was 2140 ng/g. The concentration at […] [2] was 802 ng/g, the concentration at 0.5 h [2] was 830 ng/g and the concentration at 1 h [2] was 273 ng/g. It also gave a concentration at 0.083 h [3] of 4100 ng/mL, a concentration at […] [3] of 2820 ng/mL and a concentration at 0.5 h [3] of 1620 ng/mL. The concentration at 1 h [3] was 1560 ng/mL, the concentration at 2 h [3] was 724 ng/mL and the concentration at 3 h (CD-1, mouse, plasma, intravenous, 3 h, read-out: Efavirenz concentration, Plasma) was 396 ng/mL. The concentration at 4 h (CD-1, mouse, plasma, intravenous, 4 h, read-out: Efavirenz concentration, Plasma) was 103 ng/mL, the concentration at 6 h (CD-1, mouse, plasma, intravenous, 6 h, read-out: Efavirenz concentration, Plasma) was 64.4 ng/mL and the concentration at 8 h (CD-1, mouse, plasma, intravenous, 8 h) was 33.1 ng/mL. The AUC(0-t) (CD-1, mouse, plasma, intravenous, read-out: area under the plasma-time concentration curve (AUC0-8h) of efavirenz) was 4520 ng·h/mL, the “AUC0-8h for efavirenz in the lungs” value was 0.95 µg·h/g and the “lung:liver tissue AUC0-8h ratio” value was 0.19. For the same compound, the “overall exposure of the liver relative to the lungs” value was “approximately 5 times”, the “Efavirenz concentration, Lungs” value (3 h, LLOQ 35 ng/g) was “<LLOQ” and the “Efavirenz concentration, Lungs” value (4 h, LLOQ 35 ng/g) was “<LLOQ”. The “Efavirenz concentration, Lungs” value (6 h, LLOQ 35 ng/g) was “<LLOQ”, the “Efavirenz concentration, Liver” value (8 h, LLOQ 35 ng/g) was “<LLOQ” and the “Efavirenz concentration, Lungs” value (8 h, LLOQ 35 ng/g) was “<LLOQ”.
